Test [1] has as its target purified human, His-tagged PRC2 complex (Homo sapiens (Human), UniProt O75530). Nature of the test: Hot Spot HMT assay of PRC2 enzymatic activity (tritiated methyl transfer from SAM to core histone). Type of test: biochemical. The following applies: 10 nM purified PRC2 complex, 0.05 mg/ml core histone H3, 1 uM 3H-SAM, 1 hr at 30° C.; read-out: IC50, Inhibition of PRC2-mediated Enzymatic Activity. The procedure, abridged:
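10 nM His-tagged five-subunit PRC2 complex (EZH2, EED, SUZ12, AEBP2, RbAp48) with 0.05 mg/ml core histone H3 in pH 8 Tris buffer, 1% DMSO, preincubated with compound 20 min at 30° C; reaction started with 1 uM [3H]-SAM, 1 hr at 30° C. Filter binding plus scintillation counting; IC50 from 10-point, three-fold dilutions starting at 1.0 μM.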

In test [2] the test system is Karpas 422 cells expressing mutant EZH2 (Y641N). Nature of the test: Karpas 422 cell viability (Cell Titre Glo) assay. It counts as cell-based, human. The settings on record: Homo sapiens, CTG viability, time point (Day 4, Day 7 or Day 11) not given, read-out: IC50, Inhibiting Proliferation of Cells Expressing an Activating Mutant Form of EZH2. Summed up:
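Cells plated at 1000/well were exposed to final concentrations from 10 μM down to 1.5 nM (3-fold steps) at 37° C. Viability was read by CellTiter-Glo on day 4, 7 or 11; day-11 plates were re-fed with compound on day 7. IC50 reported per time point in binned ranges.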

Test [3] deals with PRC2-mediated histone H3 methylation (H3 Lys27 trimethylation) in Pfeiffer cells expressing mutant EZH2 (A677G). Briefly: Tri-Methyl Histone H3 (Lys 27) sandwich ELISA in Pfeiffer cells. It counts as cell-based, human. The following applies: Homo sapiens; Pfeiffer cells, 96 hours incubation, ELISA; read-out: IC50, Inhibition of EZH2-mediated Histone H3 Trimethylation. The procedure, abridged: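 Pfeiffer DLBCL cells carrying EZH2 A677G were treated for 96 h at 37 °C with 3-fold dilutions, 1 μM to 0.15 nM final. Acid-extracted histones, neutralized, went into a sandwich ELISA for H3K27me3 with HRP/TMB read-out at 450 nm. Values binned A ≤250 nM, B >250–≤500 nM, C >500 nM–≤5 μM.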
On the technique in general: An ELISA detects its analyte on a solid surface through an enzyme-linked reagent.

The text below walks through data of patent publication US12252493B2, “Imidazo[1,2-c]pyrimidine derivatives as PRC2 inhibitors for treating cancer” (Mirati Therapeutics, Inc., priority 2019, dated 2025).

Bounds are passed on as bounds.

purified human, His-tagged PRC2 complex, sequence (Q15910 whole entry): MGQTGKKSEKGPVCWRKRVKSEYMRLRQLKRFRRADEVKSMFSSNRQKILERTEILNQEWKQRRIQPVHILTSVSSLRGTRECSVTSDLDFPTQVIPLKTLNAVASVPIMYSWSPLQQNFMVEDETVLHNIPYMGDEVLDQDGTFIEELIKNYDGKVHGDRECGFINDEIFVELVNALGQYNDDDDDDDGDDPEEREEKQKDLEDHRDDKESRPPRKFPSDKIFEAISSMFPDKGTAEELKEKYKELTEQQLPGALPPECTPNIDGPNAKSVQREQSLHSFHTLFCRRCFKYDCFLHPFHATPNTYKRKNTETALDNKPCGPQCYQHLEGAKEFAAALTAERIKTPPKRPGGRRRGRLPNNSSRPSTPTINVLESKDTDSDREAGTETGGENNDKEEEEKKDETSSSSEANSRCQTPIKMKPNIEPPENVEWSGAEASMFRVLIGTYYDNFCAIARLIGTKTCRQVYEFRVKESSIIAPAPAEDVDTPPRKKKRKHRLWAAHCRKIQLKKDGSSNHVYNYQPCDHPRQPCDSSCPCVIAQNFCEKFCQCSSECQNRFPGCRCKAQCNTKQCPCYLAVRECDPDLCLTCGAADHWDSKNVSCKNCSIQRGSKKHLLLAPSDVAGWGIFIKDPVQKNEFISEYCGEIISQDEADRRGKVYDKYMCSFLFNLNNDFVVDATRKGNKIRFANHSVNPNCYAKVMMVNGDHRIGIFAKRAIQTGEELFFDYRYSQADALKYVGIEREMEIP
purified human, His-tagged PRC2 complex, sequence (O75530 whole entry): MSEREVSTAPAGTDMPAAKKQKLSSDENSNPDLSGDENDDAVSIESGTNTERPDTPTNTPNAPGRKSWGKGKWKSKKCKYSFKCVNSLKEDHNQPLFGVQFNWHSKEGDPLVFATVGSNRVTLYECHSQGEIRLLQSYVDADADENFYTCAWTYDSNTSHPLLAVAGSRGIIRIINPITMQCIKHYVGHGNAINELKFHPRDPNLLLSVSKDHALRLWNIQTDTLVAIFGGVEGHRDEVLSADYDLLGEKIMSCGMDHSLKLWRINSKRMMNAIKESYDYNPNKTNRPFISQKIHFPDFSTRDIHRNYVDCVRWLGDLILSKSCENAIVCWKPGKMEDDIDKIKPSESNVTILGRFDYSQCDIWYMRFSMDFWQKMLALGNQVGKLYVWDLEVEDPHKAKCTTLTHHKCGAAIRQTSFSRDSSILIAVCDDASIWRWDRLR
purified human, His-tagged PRC2 complex, sequence (Q15022 whole entry partner): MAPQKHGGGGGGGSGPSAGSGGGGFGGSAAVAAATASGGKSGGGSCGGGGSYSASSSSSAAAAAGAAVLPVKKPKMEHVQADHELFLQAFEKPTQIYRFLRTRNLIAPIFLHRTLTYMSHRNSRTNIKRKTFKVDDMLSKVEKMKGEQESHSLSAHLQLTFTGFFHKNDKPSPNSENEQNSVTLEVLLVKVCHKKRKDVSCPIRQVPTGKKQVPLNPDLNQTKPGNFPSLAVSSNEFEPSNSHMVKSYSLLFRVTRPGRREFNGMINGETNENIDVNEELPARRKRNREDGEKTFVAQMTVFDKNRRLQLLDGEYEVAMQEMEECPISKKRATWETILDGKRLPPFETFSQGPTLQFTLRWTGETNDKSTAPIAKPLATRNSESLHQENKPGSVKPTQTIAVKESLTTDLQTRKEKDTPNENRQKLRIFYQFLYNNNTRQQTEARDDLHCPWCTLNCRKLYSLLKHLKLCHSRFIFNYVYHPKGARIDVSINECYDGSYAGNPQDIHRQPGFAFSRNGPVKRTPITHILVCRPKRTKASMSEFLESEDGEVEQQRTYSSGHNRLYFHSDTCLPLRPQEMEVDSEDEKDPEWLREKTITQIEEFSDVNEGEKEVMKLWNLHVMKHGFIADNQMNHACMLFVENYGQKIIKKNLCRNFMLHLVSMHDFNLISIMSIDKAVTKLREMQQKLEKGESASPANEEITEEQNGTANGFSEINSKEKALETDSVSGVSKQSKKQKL
purified human, His-tagged PRC2 complex, sequence (Q6ZN18 whole entry partner): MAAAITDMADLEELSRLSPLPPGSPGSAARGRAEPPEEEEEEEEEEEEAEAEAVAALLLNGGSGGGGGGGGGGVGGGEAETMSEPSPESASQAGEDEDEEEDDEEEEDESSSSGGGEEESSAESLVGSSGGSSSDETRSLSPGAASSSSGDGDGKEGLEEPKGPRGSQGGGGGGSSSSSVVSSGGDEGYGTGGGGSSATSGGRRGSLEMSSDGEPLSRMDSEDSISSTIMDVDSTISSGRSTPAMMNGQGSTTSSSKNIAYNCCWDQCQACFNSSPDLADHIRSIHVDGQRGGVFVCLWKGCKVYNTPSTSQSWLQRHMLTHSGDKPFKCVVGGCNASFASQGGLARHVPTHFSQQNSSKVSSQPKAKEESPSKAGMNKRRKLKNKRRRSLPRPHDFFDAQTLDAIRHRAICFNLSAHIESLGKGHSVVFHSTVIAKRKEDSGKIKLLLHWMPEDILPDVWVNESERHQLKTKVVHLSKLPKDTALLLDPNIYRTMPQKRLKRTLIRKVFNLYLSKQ
purified human, His-tagged PRC2 complex, sequence (Q09028 whole entry partner): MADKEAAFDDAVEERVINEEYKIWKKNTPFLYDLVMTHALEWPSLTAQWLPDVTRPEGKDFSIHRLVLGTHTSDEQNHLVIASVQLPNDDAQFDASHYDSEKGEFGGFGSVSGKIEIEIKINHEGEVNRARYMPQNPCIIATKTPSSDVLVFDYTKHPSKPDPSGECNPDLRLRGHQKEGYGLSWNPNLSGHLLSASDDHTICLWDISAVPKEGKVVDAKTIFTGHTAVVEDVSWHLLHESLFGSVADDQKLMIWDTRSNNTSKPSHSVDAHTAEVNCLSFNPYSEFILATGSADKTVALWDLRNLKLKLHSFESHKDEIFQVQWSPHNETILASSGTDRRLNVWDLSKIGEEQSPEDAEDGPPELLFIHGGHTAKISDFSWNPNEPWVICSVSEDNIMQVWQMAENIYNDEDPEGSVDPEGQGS

In the case of `Cc1cc(-c2cnc(NCc3c(F)ccc4c3CCO4)n3cc(CNC4CC4)nc23)n(C)n1` [Example 33, 2-((cyclopropylamino)methyl)-8-(1,3-dimethyl-1H-pyrazol-5-yl)-N-((5-fluoro-2,3-dihydrobenzofuran-4-yl)methyl)imidazo[1,2-c]pyrimidin-5-amine], the results for the IC50 in test [1], in test [2] and in test [3] were 500 to 2000 nM, 250 to 500 nM and 250 to 500 nM, respectively.

With `Cc1cc(S(C)(=O)=O)ccc1-c1cnc(NCc2c(F)ccc3c2CCO3)n2cc(C(C)N)nc12` (stereo not drawn) [Example 34, 2-(1-aminoethyl)-N-((5-fluoro-2,3-dihydrobenzofuran-4-yl)methyl)-8-(2-methyl-4-(methylsulfonyl)phenyl)imidazo[1,2-c]pyrimidin-5-amine], the IC50 in test [1], in test [2] and in test [3] was less than 250 nM each time.

Regarding `Cc1cc(C(=O)N(C)C)ncc1-c1cnc(NCc2c(F)ccc3c2CCO3)n2cc(C(C)N)nc12` (stereo not drawn) [Example 35, 5-(2-(1-aminoethyl)-5-(((5-fluoro-2,3-dihydrobenzofuran-4-yl)methyl)amino)imidazo[1,2-c]pyrimidin-8-yl)-N,N,4-trimethylpicolinamide], the IC50 in test [1], in test [2] and in test [3] was less than 250 nM in each case.

For `CC(N)c1cn2c(NCc3c(F)ccc4c3CCO4)ncc(-c3cc(C(F)(F)F)nn3C)c2n1` (stereo not drawn) [Example 36, 2-(1-aminoethyl)-N-((5-fluoro-2,3-dihydrobenzofuran-4-yl)methyl)-8-(1-methyl-3-(trifluoromethyl)-1H-pyrazol-5-yl)imidazo[1,2-c]pyrimidin-5-amine], the IC50 in test [1], in test [2] and in test [3] was less than 250 nM throughout.

Regarding `Cc1cc(CN(C)C)ccc1-c1cnc(NCc2c(F)ccc3c2CCO3)n2cc(C(C)N)nc12` (stereo not drawn) [Example 37, 2-(1-aminoethyl)-8-(4-((dimethylamino)methyl)-2-methylphenyl)-N-((5-fluoro-2,3-dihydrobenzofuran-4-yl)methyl)imidazo[1,2-c]pyrimidin-5-amine], the IC50 in test [1], in test [2] and in test [3] was less than 250 nM each time.

As to `Cc1cc(-c2cnc(NCc3c(F)ccc4c3CCO4)n3cc(C(C)N)nc23)ccn1` (stereo not drawn) [Example 38, 2-(1-aminoethyl)-N-((5-fluoro-2,3-dihydrobenzofuran-4-yl)methyl)-8-(2-methylpyridin-4-yl)imidazo[1,2-c]pyrimidin-5-amine], the IC50 in test [1], in test [2] and in test [3] was less than 250 nM each time.

In the case of `Cc1ncccc1-c1cnc(NCc2c(F)ccc3c2CCO3)n2cc(C(C)N)nc12` (stereo not drawn) [Example 39, 2-(1-aminoethyl)-N-((5-fluoro-2,3-dihydrobenzofuran-4-yl)methyl)-8-(2-methylpyridin-3-yl)imidazo[1,2-c]pyrimidin-5-amine], the IC50 in test [1], in test [2] and in test [3] was less than 250 nM each time.

Regarding `CC(N)c1cn2c(NCc3c(F)ccc4c3CCO4)ncc(-c3cc(C#N)nn3C)c2n1` (stereo not drawn) [Example 40, 5-(2-(1-aminoethyl)-5-(((5-fluoro-2,3-dihydrobenzofuran-4-yl)methyl)amino)imidazo[1,2-c]pyrimidin-8-yl)-1-methyl-1H-pyrazole-3-carbonitrile], the IC50 in test [1], in test [2] and in test [3] was less than 250 nM throughout.

In the case of `Cc1cc(-c2cnc(NCc3c(F)ccc4c3CCO4)n3cc(C(N)C4CC4)nc23)n(C)n1` (stereo not drawn) [Example 41, 2-(amino(cyclopropyl)methyl)-8-(1,3-dimethyl-1H-pyrazol-5-yl)-N-((5-fluoro-2,3-dihydrobenzofuran-4-yl)methyl)imidazo[1,2-c]pyrimidin-5-amine], the IC50 in test [1], in test [2] and in test [3] was less than 250 nM each time.

On to `Cc1cc(-c2cnc(NCc3c(F)ccc4c3CCO4)n3cc(-c4nnco4)nc23)n(C)n1` [Example 44, 8-(1,3-dimethyl-1H-pyrazol-5-yl)-N-((5-fluoro-2,3-dihydrobenzofuran-4-yl)methyl)-2-(1,3,4-oxadiazol-2-yl)imidazo[1,2-c]pyrimidin-5-amine], for which the IC50 in test [1], in test [2] and in test [3] was less than 250 nM in each case.

With `Cc1cc(-c2cnc(NCc3c(F)ccc4c3CCO4)n3cc(-c4cnco4)nc23)n(C)n1` [Example 45, 8-(1,3-dimethyl-1H-pyrazol-5-yl)-N-((5-fluoro-2,3-dihydrobenzofuran-4-yl)methyl)-2-(oxazol-5-yl)imidazo[1,2-c]pyrimidin-5-amine], the IC50 in test [1] was less than 250 nM; in test [2], less than 250 nM; in test [3], 250 to 500 nM.
